The numbers were not newly measured in patent US20230170070A1, “SYSTEM AND METHOD FOR PROVIDING FERTILITY ENHANCING DIETARY RECOMMENDATIONS IN INDIVIDUALS WITH SPERM CONDITIONS” (SOCIETE DES PRODUITS NESTLE S.A., priority 2020, published 2023), which cites them from elsewhere.

The subject of series [1] is semen quality. Particulars: for semen quality: In RCTs.
The conditions of series [2]: for pregnancy rate in the female partner: In RCTs.
For series [3], the system named is semen quality. Particulars: from cold water fish.
A further series relates to sperm cells. Particulars: excessive alcohol.
The test system of another series is oxidative stress status. Particulars: exogenous supplementation; both in vitro and in vivo.
Where [4] appears, read: among men with astheno- or oligoasthenozoospermia.

Like-named read-outs stand apart in the source and are kept apart here.

In the case of Vitamin E, the semen quality entry with semen quality [1] was “been shown to increase”. In addition, the “pregnancy rate in the female partner” value in series [2] is on record as “been shown to increase”.
Regarding `O[C@H]1[C@H](O)[C@@H](O)[C@H](O)[C@@H](O)[C@H]1O` [Myoinositol], in the series on semen quality [1] (myoinositol supplementation), the progressive motility entry is “increase in sperm”, the sperm concentration entry is given as “increase in sperm” and the sperm count result is on record as “increase in sperm”.
`CC(C)=CCC/C(C)=C/C=C/C(C)=C/C=C/C(C)=C/C=C/C=C(C)/C=C/C=C(C)/C=C/C=C(\C)CCC=C(C)C` [Lycopene]: the sperm parameters result in the series with semen quality [1] (in vivo) is “Improve sperm”.
With `O=C1O[C@H]([C@@H](O)CO)C(O)=C1O` [Vitamin C], the progressive sperm motility entry with semen quality [1] (in vivo) was “increase in progressive”.
Regarding omega-3 fatty acids, in the series with semen quality [3], the “influence on sperm morphology” value is recorded as “positive influence”.
For the compound `CCO` [Alcohol], in the series with sperm cells, the hormones in men entry is “decreases hormones in”; the sperm cells result was “men and degenerates”.
As to `C[N+](C)(C)C[C@H](O)CC(=O)[O-]` [L-carnitine], in the series with semen quality [1] (setting [4]), the sperm concentration result is recorded as “can significantly improve” and the total sperm counts entry is on record as “can significantly improve”.
Turning to `CC(=O)O[C@H](CC(=O)[O-])C[N+](C)(C)C` [L-acetyl carnitine (LAC), L-acetyl carnitine], in the series on semen quality [1] (setting [4]), the sperm concentration entry is reported as “can significantly improve” and the total sperm counts entry was “can significantly improve”.
Turning to `COc1cc(/C=C/C(=O)CC(=O)/C=C/c2ccc(O)c(OC)c2)ccc1O` [Curcumin], in the series with semen quality [1] (among oligoasthenoteratozoospermic men), the semena quality parameters result was “Curcumin improved”.
Consider `O=C(O)CCCCC1CCSS1` (stereo not drawn) [Alpha-lipoic acid (ALA), Alpha-lipoic acid], for which the oxidative stress status result in the series on oxidative stress status is on record as “improve oxidative stress”.
On to `C=C1CC[C@H](O)C/C1=C/C=C1\CCC[C@]2(C)[C@@H]([C@H](C)CCCC(C)C)CC[C@@H]12` [Vitamin D], for which the live birth rate result in series [2] (among oligozoospermic men, high-dose supplementation compared to placebo) is reported as “uptake. A higher live”.
Take `[Se]` [Selenium]: in the series with semen quality [1] (compared with placebo), the total sperm motility entry is reported as “increase in total sperm”.
As for `N[C@@H](CCC(=O)N[C@@H](CS)C(=O)NCC(=O)O)C(=O)O` [Glutathione], in the series with semen quality [1] (glutathione supplementation), the sperm concentration entry is “Improves sperm”, the sperm morphology result is “Improves sperm” and the sperm motility entry is reported as “Improves sperm”.
As for isoflavones, the “non-genomic effects on sperm capacitation and acrosome reaction” value in the series with sperm is on record as “genomic negative”.
For the compound `[Zn]` [Zinc], the semen quality result with semen quality [1] was “shown to increase”. Also, the “pregnancy rate in the female partner” value in series [2] is “shown to increase”.
